# Laboratory results reported in US20050106563A1 (Genesis Biotech Inc., priority 2003, published 2005).
# Where no end group is shown, it is not given here.
# Tests used:
# [1] = tested on: chicken anti-avian infectious bronchitis virus (IBV) sera; type: binding
# [2] = tested on: anti-SARS-CoV antibody in human sera; type: binding
# anti-SARS-CoV sera IgG = type: binding, human
# [3] = tested on: IgM specific to SARS-COV N1; type: binding, human
# [4] = tested on: cat anti-feline coronavirus sera; type: binding
substance,measurement,setting,value
(APATVCGPKL)8K4K2K-βA (also: octameric MAP on K4K2K lysine core with C-terminal βAla) [GA115],cross reaction with chicken anti-IBV antiserum,[1],cross reacted only but weakly
(ASLPYGANKE)8K4K2K-βA (also: octameric MAP on K4K2K lysine core with C-terminal βAla) [GA146],serum binding during treatment versus recovery period (inflammation epitopes),[2],more strongly during the treatment than during the recovery period
(ASVVNIQKEI)8K4K2K-βA (also: octameric MAP on K4K2K lysine core with C-terminal βAla) [GA291],time dependency of antibody binding (time dependent epitopes),anti-SARS-CoV sera IgG,immediate early (days 1-6)
(DHIGTRNPNN)8K4K2K-βA (also: octameric MAP on K4K2K lysine core with C-terminal βAla) [GA151],"Responder (AT>1, positive)/Total samples (R/T)",[2],10/10
same,Responder/Total samples (R/T) value,[2],0
same,share of group 2 regarded as probable SARS patients (17 of 23 cases),[2],74%
same,detection of SARS-COV antibody (IgG) in patient #51,anti-SARS-CoV sera IgG,can be detected
same,time dependency of antibody binding (time dependent epitopes),anti-SARS-CoV sera IgG,immediate early (days 1-6)
same,detection of SARS-COV antibody (IgM) in patient #51,[3],can be detected
same,cross reaction with chicken anti-IBV antiserum,[1],did not cross react
same,AbT,[4],2.9
same,response ratio R/T,[4],1/8
(FFGMSRIGME)8K4K2K-βA (also: octameric MAP on K4K2K lysine core with C-terminal βAla) [GA158],serum binding during treatment versus recovery period (inflammation epitopes),[2],more strongly during the treatment than during the recovery period
same,response ratio R/T,[1],3/3
same,response ratio R/T,[4],8/8
(GANKEGIVWV)8K4K2K-βA (also: octameric MAP on K4K2K lysine core with C-terminal βAla) [GA147],serum binding during treatment versus recovery period (inflammation epitopes),[2],more strongly during the treatment than during the recovery period
same,response ratio R/T,[1],1/3
(GKMKELSPRW)8K4K2K-βA (also: octameric MAP on K4K2K lysine core with C-terminal βAla) [GA142],serum binding during treatment versus recovery period (inflammation epitopes),[2],more strongly during the treatment than during the recovery period
(GNCDVVIGII)8K4K2K-βA (also: octameric MAP: 8 copies on K4K2K lysine core with C-terminal βAla) [GA134],serum binding during treatment versus recovery period (inflammation epitopes),[2],more strongly during the treatment than during the recovery period
(GSITAQPVKI)8K4K2K-βA (also: octameric MAP: 8 copies on K4K2K lysine core with C-terminal βAla) [GA186],cross reaction with chicken anti-IBV antiserum,[1],cross reacted only but weakly
(GTSWFITQRN)8K4K2K-βA (also: octameric MAP: 8 copies on K4K2K lysine core with C-terminal βAla) [GA129],AbT,[4],> 1
same,response ratio R/T,[4],5/6
(HGAIKLDDKD)8K4K2K-βA (also: octameric MAP: 8 copies on K4K2K lysine core with C-terminal βAla) [GA162],time dependency of antibody binding (time dependent epitopes),anti-SARS-CoV sera IgG,early (days 7-29)
(IAQFAPSASA)8K4K2K-βA (also: octameric MAP: 8 copies on K4K2K lysine core with C-terminal βAla) [GA156],serum binding during treatment versus recovery period (inflammation epitopes),[2],more strongly during the treatment than during the recovery period
(IGYYRRATRR)8K4K2K-βA (also: octameric MAP: 8 copies on K4K2K lysine core with C-terminal βAla) [GA139],serum binding during treatment versus recovery period (inflammation epitopes),[2],more strongly during the treatment than during the recovery period
(IITTDNTFVS)8K4K2K-βA (also: octameric MAP: 8 copies on K4K2K lysine core with C-terminal βAla) [GA132],serum binding during treatment versus recovery period (inflammation epitopes),[2],more strongly during the treatment than during the recovery period
(INTNSGPDDQ)8K4K2K-βA (also: octameric MAP: 8 copies on K4K2K lysine core with C-terminal βAla) [GA137],serum binding during treatment versus recovery period (inflammation epitopes),[2],more strongly during the treatment than during the recovery period
(KHWPQIAQFA)8K4K2K-βA (also: octameric MAP: 8 copies on K4K2K lysine core with C-terminal βAla) [GA155],serum binding during treatment versus recovery period (inflammation epitopes),[2],more strongly during the treatment than during the recovery period
same,response ratio R/T,[1],2/3
same,response ratio R/T,[4],8/8
(KKTDEAQPLP)8K4K2K-βA (also: octameric MAP: 8 copies on K4K2K lysine core with C-terminal βAla) [GA170],"Responder (AT>1, positive)/Total samples (R/T)",[2],10/10
same,Responder/Total samples (R/T) value,[2],0
same,share of group 2 regarded as probable SARS patients (17 of 23 cases),[2],74%
same,detection of SARS-COV antibody (IgG) in patient #51,anti-SARS-CoV sera IgG,can be detected
same,time dependency of antibody binding (time dependent epitopes),anti-SARS-CoV sera IgG,immediate early (days 1-6)
same,cross reaction with chicken anti-IBV antiserum,[1],cross reacted only but weakly
same,response ratio R/T,[4],0/8
(KYFKNHTSPD)8K4K2K-βA (also: octameric MAP: 8 copies on K4K2K lysine core with C-terminal βAla) [GA287],time dependency of antibody binding (time dependent epitopes),anti-SARS-CoV sera IgG,immediate early (days 1-6)
(LQLPQGTTLP)8K4K2K-βA (also: octameric MAP: 8 copies on K4K2K lysine core with C-terminal βAla) [GA154],detection of SARS-COV antibody (IgM) in patient #51,[3],can be detected
"(LRIPVTAEVGSSYFK)8K4K2K-βA (also: octameric MAP: 8 copies on K4K2K lysine core with C-terminal βAla) [GA6, control polypeptide, WSSV VP28 52-66]",response ratio R/T,[1],1/3
same,response ratio R/T,[4],8/8
(LSPRWYFYYL)8K4K2K-βA (also: octameric MAP: 8 copies on K4K2K lysine core with C-terminal βAla) [GA143],serum binding during treatment versus recovery period (inflammation epitopes),[2],more strongly during the treatment than during the recovery period
(NAATVLQLPQ)8K4K2K-βA (also: octameric MAP: 8 copies on K4K2K lysine core with C-terminal βAla) [GA153],detection of SARS-COV antibody (IgM) in patient #51,[3],can be detected
(PPTEPKKDKK)8K4K2K-βA (also: octameric MAP: 8 copies on K4K2K lysine core with C-terminal βAla) [GA168],detection of SARS-COV antibody (IgG) in patient #51,anti-SARS-CoV sera IgG,can be detected
same,time dependency of antibody binding (time dependent epitopes),anti-SARS-CoV sera IgG,immediate early (days 1-6)
(QPTVTLLPAA)8K4K2K-βA (also: octameric MAP: 8 copies on K4K2K lysine core with C-terminal βAla) [GA173],cross reaction with chicken anti-IBV antiserum,[1],cross reacted only but weakly
(QRQKKQPTVT)8K4K2K-βA (also: octameric MAP: 8 copies on K4K2K lysine core with C-terminal βAla) [GA172],response ratio R/T,[1],3/3
same,response ratio R/T,[4],8/8
(RINWVTGGIA)8K4K2K-βA (also: octameric MAP: 8 copies on K4K2K lysine core with C-terminal βAla) [GA179],serum binding during treatment versus recovery period (inflammation epitopes),[2],more strongly during the treatment than during the recovery period
same,response ratio R/T,[1],3/3
same,response ratio R/T,[4],7/8
(RNPNNNAATV)8K4K2K-βA (also: octameric MAP: 8 copies on K4K2K lysine core with C-terminal βAla) [GA152],"Responder (AT>1, positive)/Total samples (R/T)",[2],10/10
same,Responder/Total samples (R/T) value,[2],0
same,share of group 2 regarded as probable SARS patients (17 of 23 cases),[2],74%
same,detection of SARS-COV antibody (IgG) in patient #51,anti-SARS-CoV sera IgG,can be detected
same,time dependency of antibody binding (time dependent epitopes),anti-SARS-CoV sera IgG,immediate early (days 1-6)
same,detection of SARS-COV antibody (IgM) in patient #51,[3],can be detected
same,cross reaction with chicken anti-IBV antiserum,[1],did not cross react
same,response ratio R/T,[4],0/8
(RVDFCGKGYH)8K4K2K-βA (also: octameric MAP: 8 copies on K4K2K lysine core with C-terminal βAla) [GA117],serum binding during treatment versus recovery period (inflammation epitopes),[2],more strongly during the treatment than during the recovery period
same,response ratio R/T,[1],1/3
same,response ratio R/T,[4],6/8
(RYLRHGKLRP)8K4K2K-βA (also: octameric MAP: 8 copies on K4K2K lysine core with C-terminal βAla) [GA102],serum binding during treatment versus recovery period (inflammation epitopes),[2],more strongly during the treatment than during the recovery period
same,response ratio R/T,[1],2/3
same,response ratio R/T,[4],8/8
(YNYKYRYLRH)8K4K2K-βA (also: octameric MAP: 8 copies on K4K2K lysine core with C-terminal βAla) [GA101],serum binding during treatment versus recovery period (inflammation epitopes),[2],more strongly during the treatment than during the recovery period
same,response ratio R/T,[1],3/3
same,response ratio R/T,[4],8/8
FVASFRLFAR (SARS Coronavirus) [GA203],detection of SARS-COV antibody (IgG) in patient #51,anti-SARS-CoV sera IgG,can be detected
same,time dependency of antibody binding (time dependent epitopes),anti-SARS-CoV sera IgG,immediate early (days 1-6)
LLACLCKHKK (SARS Coronavirus) [GA231],serum binding during treatment versus recovery period (inflammation epitopes),[2],more strongly during the treatment than during the recovery period
same,detection of SARS-COV antibody (IgG) in patient #51,anti-SARS-CoV sera IgG,can be detected
same,time dependency of antibody binding (time dependent epitopes),anti-SARS-CoV sera IgG,immediate early (days 1-6)
MSRRRLLACL (SARS Coronavirus) [GA230],detection of SARS-COV antibody (IgG) in patient #51,anti-SARS-CoV sera IgG,can be detected
same,time dependency of antibody binding (time dependent epitopes),anti-SARS-CoV sera IgG,immediate early (days 1-6)
NYKYRYLRHGKLRPFERDISNVPFS [GA91],response ratio R/T,[4],6/8
